Values joined by “and” are separate entries in the source; they are usually repeats but may differ in a detail not shown here. Equal values may be shown once.

Here are results for 46 compounds from the Deep4Chem optical property database.

The nature of the data set: photoluminescence quantum yield (fraction); solvent given as SMILES.

Consider `CCCCCCC(CCCCCC)N1C(=O)c2cccc3c(-c4ccc(OC)c5cccc(C)c45)ccc(c23)C1=O`, for which the photoluminescence quantum yield worked out at 0.34 (in CCCCCC); 0.34 (in CCCCCCCCCCCCCC); 0.28 (in CCCCCCCCCCCO); 0.047 (in CCCCO); 0.055 (in CN(C)C=O); 0.19 (in Cc1ccccc1). Further, the photoluminescence quantum yield (in ClC(Cl)Cl) came to 0.4.

Turning to `O=C1NC(c2ccccc2)=C/C1=C\c1ccccc1`, the photoluminescence quantum yield (in C1COCCO1) was determined as 0.012.

Regarding `CN(C)c1ccc(C(=O)Nc2ccc(F)cc2)cc1`, the photoluminescence quantum yield is 0.0011 (in C1CCCCC1), 0.0053 (in C1CCOC1), 0.0104 (in CC#N) and 0.0034 (in CCOCC).

On to `C#CC1CN2CCC1CC2[C@@H](O)c1ccnc2ccc(OC)cc12` (stereo partly specified), for which the photoluminescence quantum yield runs as follows: (in C1CCOC1) 0.063; (in CC#N) 0.008; (in CCCC#N) 0.032; (in Cc1ccccc1) 0.023; (in ClCCl) 0.033.

Regarding `Nc1ccc2c(ccc3[n+]2[B-](F)(F)n2c-3cc3c4ccccc4c4ccccc4c32)c1`, the photoluminescence quantum yield (in ClCCl) is 0.81.

Compound `CCCCCCCCOc1cc(/C=C/c2ccncc2)c(OCCCCCCCC)cc1/C=C/c1ccncc1` had a photoluminescence quantum yield (in ClCCl) of 0.634.

`C1=Cc2nc1c(-c1cccs1)c1ccc([nH]1)c(-c1cccs1)c1nc(c(-c3cccs3)c3ccc([nH]3)c2-c2cccs2)C=C1`: the photoluminescence quantum yield (in CN(C)C=O) stood at 0.012 and the photoluminescence quantum yield (in ClCCl) came out at 0.0046.

With `COc1cc2c3cc(OC)c(OC)cc3c3cc4c(C)cc(=O)oc4cc3c2cc1OC`, the photoluminescence quantum yield reads like this: (in CO) 0.02; (in CS(C)=O) 0.056; (in ClC(Cl)Cl) 0.08.

For `CC1(C)c2ccccc2N(c2ccc(-c3ccc4c(c3)c3cc(-c5ccc(N6c7ccccc7C(C)(C)c7ccccc76)cc5)ccc3c3nc(C#N)c(C#N)nc43)cc2)c2ccccc21`, the photoluminescence quantum yield is, setting by setting: (in Cc1ccccc1) 0.33; (in O=P(c1ccccc1)(c1ccccc1)c1cccc(-c2cc(-n3c4ccccc4c4ccccc43)cc(-n3c4ccccc4c4ccccc43)c2)n1) 0.65.

`Nc1ccccc1/C=C/C(F)(F)F` registered a photoluminescence quantum yield (in C1CCOC1) of 0.77.

`F[B-]1(F)n2c(c(-c3ccccc3)c3ccccc32)C(c2ccccc2)=C2C(c3ccccc3)=c3ccccc3=[N+]21` gave a photoluminescence quantum yield (in ClCCl) of 0.

Consider `CCC1=C(C2=C(C3=C(CC)S(=O)(=O)c4ccccc43)C(F)(F)C(F)(F)C2(F)F)c2ccccc2S1(=O)=O`, for which the photoluminescence quantum yield (in C1COCCO1) was 0.

For `Cc1cc(=O)oc2cc3c(cc12)c1c2ccccc2c2ccccc2c1c1c2ccccc2c2ccccc2c31`, the photoluminescence quantum yield (in ClC(Cl)Cl) is 0.1.

For `COc1ccc(-c2ccc3c(c2)nnn3C[C@H](N)C(=O)O)cc1`, the photoluminescence quantum yield (in CO) is 0.17.

As for `COc1cc(C=O)cc(-c2[nH]c(=O)n3c2-c2ccccc2C3=O)c1O`, the photoluminescence quantum yield was 0.33 (in CC#N), 0.04 (in CO) and 0.93 (in ClCCl).

As for `COC(=O)c1ccc2c3ccc(C(=O)OC)c4c(C(=O)OC)ccc(c5ccc(C(=O)OC)c1c25)c43`, the photoluminescence quantum yield runs as follows: (in C1COCCO1) 0.99; (in CC#N) 0.97; (in CC(C)=O) 0.99; (in CC(C)O) 0.96; (in CCCCO) 0.96; (in CN(C)C=O) 0.95. The photoluminescence quantum yield by setting is: (in CO) 0.99; (in ClC(Cl)Cl) 0.83.

`Cc1cc(C)c(C2=C3C=C(/C=C/C(=O)OCc4ccccc4)C=[N+]3[B-](F)(F)n3cccc32)c(C)c1` gave a photoluminescence quantum yield (in ClCCl) of 0.36.

Consider `c1ccc2c(c1)-c1sc3ccccc3c1C21c2ccccc2-c2sc3ccccc3c21`, for which, where the note is “in ClCCl”, the photoluminescence quantum yield was 0.06.

As to `CCN(CC)c1ccc2cc3ccc(=[N+](CC)CC)cc-3oc2c1`, the photoluminescence quantum yield reads like this: (in CC#N) 0.85; (in CCO) 0.95; (in CN(C)C=O) 0.74; (in O) 0.94.

As to `CCOc1cccc2c1O[B-](F)(F)[n+]1c3c(c4c(c1-2)-c1ccccc1CC4)-c1ccccc1CC3`, the photoluminescence quantum yield (in ClCCl) stood at 0.16.

As for `CC1(C)c2ccccc2N(c2cc[n+]3c(c2)-c2ccccc2O[B-]3(F)F)c2ccccc21`, for the setting “in O=P(c1ccccc1)(c1ccccc1)c1ccccc1Oc1ccccc1P(=O)(c1ccccc1)c1ccccc1”, the photoluminescence quantum yield is 0.65.

`COc1cc(/C=C/c2nc3ccccc3s2)c(OC)cc1/C=C/c1nc(C)nc(C)n1`: the photoluminescence quantum yield (in C1CCOC1) was determined as 0.94, the photoluminescence quantum yield (in CC#N) is 0.86, the photoluminescence quantum yield (in ClC(Cl)Cl) amounted to 0.88 and the photoluminescence quantum yield (in ClCCl) came to 0.86.

In the case of `CC(C)(C)c1cc2ccc3cc(C(C)(C)C)cc4c(N(c5ccccc5)c5ccccc5)cc(c1)c2c34`, the photoluminescence quantum yield (in CCCCCC) worked out at 0.24.

For the setting “in ClCCl”, `c1ccc2c(C3=C(c4cccc5ccccc45)c4cccc5c4c(cc4nc6ccccc6nc45)O3)cccc2c1` showed a photoluminescence quantum yield of 0.32.

With `Cc1ccc(-c2c3ccc([nH]3)c3nc(c(-c4ccc(C#N)cc4)c4ccc([nH]4)c4ccc([nH]4)c(-c4ccc(C)cc4)c4ccc2o4)C=C3)cc1`, the photoluminescence quantum yield is, setting by setting: (in C1CCOC1) 0.179; (in Cc1ccccc1) 0.166; (in c1ccccc1) 0.175.

`CC(=O)NC(Cc1ccc(O)cc1)C(=O)O[Si]1(OC(=O)C(Cc2ccc(O)cc2)NC(C)=O)n2c3c4ccccc4c2/N=C2N=C(/N=c4/c5ccccc5/c(n41)=N/C1=NC(=N\3)/c3ccccc31)c1ccccc1\2` (stereo unspecified) returned a photoluminescence quantum yield (in CN(C)C=O) of 0.26.

For `Cc1ccc(/C=C/c2nc3ccccc3s2)cc1`, the photoluminescence quantum yield (in C1CCCCC1) is 0.02 and the photoluminescence quantum yield (in CO) came out at 0.003.

`CC1(C)c2ccccc2N(c2ccc(-c3nc([C@]45CC6CC(C[C@@H](C6)C4)C5)nc([C@]45C[C@H]6C[C@@H](C[C@H](C6)C4)C5)n3)cc2)c2ccccc21` showed a photoluminescence quantum yield (in CC(C)(C)c1ccc(-n2c3ccc([Si](c4ccccc4)(c4ccccc4)c4ccccc4)cc3c3cc([Si](c4ccccc4)(c4ccccc4)c4ccccc4)ccc32)cc1) of 0.83.

Turning to `COc1ccc(/C=C/C2=CC(/C=C/c3ccc(OC)cc3)=[O+][B-](OC(C)=O)(OC(C)=O)O2)cc1`, the photoluminescence quantum yield (in C1CCOC1) is 0.95; the photoluminescence quantum yield (in CC#N) turned out to be 0.85; the photoluminescence quantum yield (in CC(C)=O) stood at 0.88; the photoluminescence quantum yield (in CS(C)=O) was found to be 0.83; the photoluminescence quantum yield (in Cc1ccccc1) worked out at 0.98; the photoluminescence quantum yield (in ClC(Cl)Cl) came to 0.91. In addition, under “in ClCCl”, the photoluminescence quantum yield stood at 0.92.

`O=C1c2ccccc2-c2ccccc21`: the photoluminescence quantum yield was found to be 0.0004 (in C1CCCCC1), 0.027 (in CC#N), 0.0009 (in CCO) and 0.0078 (in c1ccccc1).

Consider `O=c1oc2ccccc2cc1/C=C/c1ccccc1`, for which the photoluminescence quantum yield (in CC#N) amounted to 0.61.

The compound `CC(C)(C)c1cc(-c2c3cc(c(-c4cc(C(C)(C)C)cc(C(C)(C)C)c4)c4ccc([nH]4)c(-c4ccc([N+](=O)[O-])cc4)c4nc(c(-c5ccc([N+](=O)[O-])cc5)c5ccc2[nH]5)C=C4)N=C3)cc(C(C)(C)C)c1` registered a photoluminescence quantum yield (in ClCCl) of 0.0263.

As to `N#Cc1nc(N(Cc2ccc(Cl)cc2)Cc2ccc(Cl)cc2)c(C#N)nc1N(Cc1ccc(Cl)cc1)Cc1ccc(Cl)cc1`, the photoluminescence quantum yield (in ClC(Cl)Cl) amounted to 0.71.

For `CCC1(CC)c2cc(B(c3c(C)cc(C)cc3C)c3c(C)cc(C)cc3C)ccc2-c2c1c1c(c3c2C(CC)(CC)c2cc(N(c4ccccc4)c4ccccc4)ccc2-3)C(CC)(CC)c2cc(B(c3c(C)cc(C)cc3C)c3c(C)cc(C)cc3C)ccc2-1`, the photoluminescence quantum yield (in C1CCOC1) stood at 0.2.

Regarding `Cc1nc2cc(/C=C/c3ccc(N(C)C)cc3)ccc2nc1-c1ccccc1`, the photoluminescence quantum yield reads like this: (in C1COCCO1) 0.29; (in CC#N) 0.01; (in ClCCl) 0.09.

For the compound `CCCCN1c2ccccc2Sc2cc(/C=C\c3cc(=O)oc4ccc(C)cc34)ccc21`, the photoluminescence quantum yield (in ClC(Cl)Cl) is 0.7.

For `CCCCCCCCCCCCC1(CCCCCCCCCCCC)c2cc(-c3ccc(C=C4C(=O)c5ccccc5C4=O)cc3)ccc2-c2ccc(-c3ccc(C=C4C(=O)c5ccccc5C4=O)cc3)cc21`, the photoluminescence quantum yield reads like this: (in C1CCOC1) 0.046; (in CC(C)=O) 0.121; (in CCCCCC) 0.008; (in CS(C)=O) 0.228; (in Cc1ccccc1) 0.012; (in ClC(Cl)Cl) 0.013.

For the setting “in ClCCl”, `CCCCC(CC)Cn1c2cc(C#N)ccc2c2ccc(C#Cc3cc(C#Cc4ccc5c6ccc(C#N)cc6n(CC(CC)CCCC)c5c4)c4ccc5c(C#Cc6ccc7c8ccc(C#N)cc8n(CC(CC)CCCC)c7c6)cc(C#Cc6ccc7c8ccc(C#N)cc8n(CC(CC)CCCC)c7c6)c6ccc3c4c65)cc21` (stereo unspecified) returned a photoluminescence quantum yield of 0.61.

Consider `F[B-]1(F)n2c(c(-c3ccccc3)c(-c3ccccc3)c2-c2ccccc2)C=C2C(c3ccccc3)=C(c3ccccc3)C(c3ccccc3)=[N+]21`, for which the photoluminescence quantum yield (in C1CCOC1) is 0.96.

Compound `CCn1c2c(-c3cccs3)cc(C(C)(C)C)cc2c2cc(C(C)(C)C)cc(-c3cccs3)c21` had a photoluminescence quantum yield (in ClCCl) of 0.064.

The compound `C(#Cc1ccccc1)C1=Cc2ccc3ccccc3c2NB1c1ccccc1` came in with a photoluminescence quantum yield (in C1CCCCC1) of 0.72.

As to `O=P1(c2ccccc2)C(c2ccccc2)=Cc2cc3ccccc3cc21` (stereo unspecified), the photoluminescence quantum yield (in ClCCl) is 0.37.

In the case of `C[Si](C)(C)C#CC(C#C[Si](C)(C)C)=Cc1ccc(C=C(C#C[Si](C)(C)C)C#C[Si](C)(C)C)cc1`, the photoluminescence quantum yield (in ClC(Cl)Cl) is 0.01 and 0.03.

Under “in ClC(Cl)Cl”, `O=C1c2ccc3c4c(NC5CCCCC5)cc5c6c(ccc(c7c(NC8CCCCC8)cc(c2c37)C(=O)N1C1CCCCC1)c64)C(=O)N(C1CCCCC1)C5=O` showed a photoluminescence quantum yield of 0.008.

Consider `Cc1oc(-c2ccccc2)nc1C(=O)O`, for which the photoluminescence quantum yield stood at 0.16 (in C1CCCCC1); 0.4 (in CC#N); 0.52 (in CCO); 0.5 (in CCOC(C)=O); 0.51 (in O).

`c1ccc(-c2c3ccccc3c(-c3ccc4ccccc4c3)c3ccccc23)nc1` returned a photoluminescence quantum yield (in ClCCl) of 0.75.
